Results: patent US12653796B2, “Compounds for use (in particular RIPA-56) in the prevention and/or treatment of non-alcoholic fatty liver disease” (SORBONNE UNIVERSITE, priority 2019, dated 2026)

Test system: HFD-fed mice
Assay: RIPA-56 feeding experiment in HFD-fed mice (NASH/steatosis model)
Format: in vivo, C57BL/6J mice
Experimental: FIG. 2. RIPA-56 treatment improves liver inflammation and fibrosis in HFD-fed mice. Six-week-old male C57BL/6J mice (n=5 per group) were fed either with normal control diet (NCD) or high-fat diet (HFD) supplemented or not with RIPA-56, according to prophylactic (“Pro”) or curative (“Cur”) designs for 16 weeks, the time necessary for an inflammatory and fibrotic response to develop. Differences between mice were determined by analysis of variance (ANOVA) with Bonferroni's multiple comparison. (A) Schematic representation of the experimental design; (B) Immunoblot analyses of whole liver protein extracts from mice fed NCD (1 to 3), HFD (4 to 6), HFD with RIPA-56 “Pro” (7 to 9), or HFD with RIPA-56 “Cur” (10 to 12) using antibodies against RIPK1, MLKL, RIPK3 and GAPDH as loading control; (C) Serum analysis of ALT; (D) Immuno-histochemical analysis of F4/80 on representative liver tissue sections from mice of each group; (E) Quantitative analysis of F4/80^+ foci using ImageJ software, 10 pictures per mouse were quantified; (F) F4/80, Mcp-1 and Tnf mRNA levels were assessed by RT-qPCR. (G) Representative Sirius Red staining of liver tissue section from mice of each group; (H) Quantification of light polarized Sirius Red pictures, 10 pictures per mouse were analyzed; (I) Collal mRNA levels were assessed by RT-qPCR. All data are expressed as mean±SEM; *p<0.05; **p<0.01; ***p<0.001. Scale bars indicate 50 μm.
FIG. 5. RIPA-56 treatment improves HFD-induced obesity and steatosis in mice. Six-week-old male C57BL/6J mice (n=5 per group) were fed either NCD or HFD supplemented or not with RIPA-56 for 16 weeks, as depicted in FIG. 2A, to analyze the metabolic status of the mice. (A) Body weight gain in mice of the 4 groups. No significant change in (B) food intake, (C) spontaneous locomotor activity, or (D) respiratory exchange ratio (RER) in mice Of the 4 groups; (E) Whole energy expenditure was evaluated during daylight and night in mice of the 4 groups; (F) Representative H&E staining of liver tissue sections from mice of the 4 groups. Scale bars, 50 μm; (G) Steatosis score of liver tissue sections was evaluated blinded; (H) Intrahepatic triglyceride contents were measured in two liver samples per mouse. Results are shown as mean±SEM; *p<0.05; **p<0.01; ***p<0.001.
FIG. 6. Fat and lean mass in prophylactically- and curatively-treated mice compared with control mice under HFD. (A) Body fat mass and relative body fat content, and (B) lean mass and relative lean content were evaluated in HFD-fed mice using MRI analysis. All results are shown as mean±SEM; n=5 per group; *p<0.05. Differences between groups were determined by one-way ANOVA with Bonferroni's multiple comparison.
Six-week-old male C57BL/6J mice (Charles River Laboratories, Ecully, France) were fed a high-fat diet (HFD—45 kcal % fat) or a normal chow diet (NCD) (Ssniff spezialdiäten GmbH, Soest, Germany) for 16 weeks (the time necessary for an inflammatory and fibrotic response to develop).
RIPA-56 (MedChemExpress, Stockholm, Sweden) was incorporated in diet by Ssniff spezialdiäten GmbH (Soest, Germany) according to a standardized protocol. Ssniff company is an approved manufacturer of laboratory animal diets and has the license to produce medicated feed for laboratory animals in accordance with Directive 2001/82/EC. Before the end of the feeding period, mice were single housed for one week in metabolic cages to measure food intake, respiratory exchange ratio (RER), energy expenditure and spontaneous locomotor activity using a LabMaster indirect calorimetry system (TSE Systems GmbH, Bad Homburg, Germany). Mice were sacrificed under anesthesia and blood was collected via intracardiac puncture procedure. Tissue samples were either directly snap-freezed in liquid nitrogen for molecular analysis or fixed in 4% PFA and embedded in paraffin for histological analysis. […]

SMILES: CCC(C)(C)C(=O)N(O)Cc1ccccc1 [RIPA-56, N-Benzyl-N-hydroxy-2,2-dimethylbutanamide]
- MLKL and RIPK3 expression in liver (Western blot) (HFD 16 weeks, 300 mg/kg in diet, both prophylactic and curative treatments): repressed
- hepatic fat content by blinded histological analyses (HFD-fed mice): marked decrease
- hepatic triglyceride content, reduction (HFD-fed mice): 30-40%
- increments in liver mRNA levels of Ccl20, Nlrp3 or Il-1b (RIPA-56-treated HFD-fed mice): abrogated or reduced
- expression of RIPK1 in liver (Western blot and RT-qPCR): not impacted
- steatosis (both curative and prophylactic settings): largely reduced
- increase of serum alanine aminotransferase (ALT) (both prophylactic and curative settings): abolished
- macrophage infiltration (hepatic F4/80 immunostaining) (both prophylactic and curative treatments): suppressed
- liver mRNA levels of F4/80 and Mcp-1, difference HFD vs NCD (both regimens): disappeared
- mRNA levels of MLKL and RIPK3 in liver (both regimens, RT-qPCR): decreased
- body weight gain, fat- or lean-mass vs untreated HFD-fed mice (curative setting, start after 12 weeks of HFD): did not result in differences
- Collagen-1a1 (Col1a1) mRNA levels in liver (curative treatment): reduced
- TNFα expression in liver (curative treatment): markedly reduced
- intensity of histologic features of NASH (curative treatment): largely attenuates
- pericellular fibrosis (Sirius red staining) (prophylactic and curative treatments): virtually disappeared
- MLKL and RIPK3 expression in liver (Western blot) (prophylactic setting): almost complete inhibition
- body weight gain, lower than untreated HFD-fed mice (prophylactic setting): ~12%
- fat and relative fat mass (MRI) (prophylactic setting): significant decrease
- lean and relative lean body mass (MRI) (prophylactic setting): trend towards increased
- Collagen-1a1 (Col1a1) mRNA levels in liver (prophylactic treatment): no longer increased
- histologic features of NASH (prophylactic treatment): prevents
- increase of TNFα expression in liver (prophylactic treatment): not after RIPA-56 prophylactic treatment
- energy expenditure (indirect calorimetry) (prophylactic treatment vs curative or no treatment): increased
